Measurements: patent US11419902B2, “Compositions comprising bacterial strains” (4D Pharma Research Limited, priority 2018, dated 2022)

Legend:
splenocytes = assay: Spleen cytokine assay (ex-vivo splenocyte assay); assay type: in vivo, mouse; conditions: mice administered MRx0029
Experimental: Animals were allowed to habituate to their holding room for one week after arrival into the animal unit. They receive oral gavage (200 μL dose) of live biotherapeutics at a dose of 1×10^9 CFU for 6 consecutive days between 15:00 and 17:00. On day 7, the animals are decapitated, and tissues are harvested for experimentation.
Spleens were collected immediately in 5 mL RPMI media following sacrifice and cultured immediately. Spleen cells were first homogenised in this RPMI media, followed by 5 mins incubation with 1 ml of RBC lysis buffer (11814389001 ROCHE, Sigma). A further 10 ml of RPMI media was added, followed by 200G centrifugation for 5 mins. The supernatant was then filtered through 40 um strainer. Cells were counted and seeded (4,000,000/mL media). After 2.5 h of adaptation, cells were stimulated with lipopolysaccharide (LPS-2 μg/ml) or concanavalin A (ConA-2.5 μg/ml) for 24 h. Following stimulation, the supernatants were harvested to assess the cytokine release using Proinflammatory Panel 1 (mouse) V-PLEX Kit (Meso Scale Discovery, Maryland, USA) for TNF-α, IL-10, IL-1β, Interferon γ, CXCL2 and IL6. The analyses were performed using MESO QuickPlex SQ 120, SECTOR Imager 2400, SECTOR Imager 6000, SECTOR S 600.
The ex-vivo splenocyte assay involves challenging the splenocytes (cells isolated from the spleen—a main organ involved in immune defence), with a bacterio- or viral-mimetic challenge.

IL-6 = IL-6 secretion by astrocytoma cell line U373 (ELISA); assay type: cell-based, Human; conditions: U373 cells, 100 μl bacteria supernatant, 24 h, vs untreated and YCFA+ controls
NF-κB-Ap1 promoter = assay: NF-κB promoter activation in HEK-TLR4 reporter cells (SEAP); assay type: cell-based, human; conditions: 10% supernatant 22 h, on its own (without LPS)
Experimental: HEK293-Blue reporter cells stably expressing human TLR4 (HEK-TLR4), were cultured according to the manufacturer's instructions. Briefly, HEK-TLR4 cells were maintained in DMEM 4.5 g/L D-glucose supplemented with 10% (v/v) heat-inactivated FBS, 4 mM L-Glutamine, 100 U/ml penicillin, 100 μg/ml streptomycin, 100 μg/ml normocin, 1×HEK-Blue selection media.
Briefly, cells were washed with PBS, dissociated in PBS and collected in growth media. Cells were plated in 96-well plates at a density of 25,000 cells/well. To evaluate the effect of bacteria strains on LPS inducing NF-κB promoter activation, cells were treated with 10 ng/ml LPS in presence or absence of 10% supernatants (isolated as described above) and incubated in a CO2 incubator. Treatments proceeded for 22 h at 37° C. and 5% CO2, after which the detection of Secreted Embryonic Alkaline Phosphatase (SEAP) activity from cell culture supernatant was performed using QUANTI-blue solution according to manufacturer's instructions. Briefly, 20 μl of cell-free supernatant was collected and analysed for the presence of SEAP by mixing with 200 μl of sterile-filtered QUANTI-Blue detection media. After 2 h incubation at 37° C., optical density was measured at 655 nm on a microplate reader (iMark microplate, Bio-Rad).

DRD2 = DRD2 expression in SH-SY5Y cells; assay type: cell-based; conditions: vs untreated cells
Experimental: SH-SY5Y were plated in 10 cm petri dishes a density of 2×10^6 cells. After 24 h cells were treated in differentiation medium (growth medium containing 1% FBS without RA) with 10% bacteria supernatants or YCFA+, 10 uM RA, 200 uM hexanoic acid or 200 uM valproic acid, for 17 hrs. There after representative images were taken using phase contrast EVOS XL core microscope at 40×10.65 magnification. Cells were collected, and total RNA was isolated according to RNeasy mini kit protocol (Qiagen). cDNAs were made using the high capacity cDNA reverse transcription kit (Applied Biosystems). Gene expression was measured using qPCR. GAPDH was used as internal control. Fold change was calculated according to the 2^(−ΔΔct) method.
The inventors measured the change in DRD2 expression in neuroblastoma cells using the same method as described in Example 1.

Substance: Megasphaera massiliensis MRx0029
- interferon-γ production from splenocytes (splenocytes; following a challenge with LPS): reduction
- interleukin-1β production from splenocytes (splenocytes; following a challenge with LPS): reduction
- interleukin-6 production from splenocytes (splenocytes; following a challenge with LPS): reduction
- levels of the chemoattractant CXCL1 from splenocytes (splenocytes): increase in the levels of the chemoattractant CXCL1
- IL-6 secretion (IL-6): upregulates IL-6 secretion
- NF-κB-Ap1 promoter activation (NF-κB-Ap1 promoter): induced NF-κB-Ap1 promoter activation
- expression of DRD2 (DRD2): significantly decreased the expression of DRD2
